Laboratory results from paper PMC4775085 (ACS chemical neuroscience, 2015).
Converted amounts (≈) assume the structure as drawn. “And” between values parts separate entries of the source, which are not always exact repeats. Equal values may be shown once. Read-outs that look alike come from different tables or passages of the source. Values belong to the molecule of their own block, whether it stands above or below them.

Tests used:
HDAC6 = molecular target: T1, HDAC6 (Homo sapiens, UniProt Q9UBN7); test: HDAC6 enzymatic inhibition assay; type: biochemical; details: for Selectivity HDAC1/HDAC6: ratio of HDAC1 and HDAC6 IC50 of Table 1 (fold); for IC50: 10-point enzymatic assay starting from 30 μM, 3-fold serial dilution
T1 sequence (Q9UBN7 1-1215): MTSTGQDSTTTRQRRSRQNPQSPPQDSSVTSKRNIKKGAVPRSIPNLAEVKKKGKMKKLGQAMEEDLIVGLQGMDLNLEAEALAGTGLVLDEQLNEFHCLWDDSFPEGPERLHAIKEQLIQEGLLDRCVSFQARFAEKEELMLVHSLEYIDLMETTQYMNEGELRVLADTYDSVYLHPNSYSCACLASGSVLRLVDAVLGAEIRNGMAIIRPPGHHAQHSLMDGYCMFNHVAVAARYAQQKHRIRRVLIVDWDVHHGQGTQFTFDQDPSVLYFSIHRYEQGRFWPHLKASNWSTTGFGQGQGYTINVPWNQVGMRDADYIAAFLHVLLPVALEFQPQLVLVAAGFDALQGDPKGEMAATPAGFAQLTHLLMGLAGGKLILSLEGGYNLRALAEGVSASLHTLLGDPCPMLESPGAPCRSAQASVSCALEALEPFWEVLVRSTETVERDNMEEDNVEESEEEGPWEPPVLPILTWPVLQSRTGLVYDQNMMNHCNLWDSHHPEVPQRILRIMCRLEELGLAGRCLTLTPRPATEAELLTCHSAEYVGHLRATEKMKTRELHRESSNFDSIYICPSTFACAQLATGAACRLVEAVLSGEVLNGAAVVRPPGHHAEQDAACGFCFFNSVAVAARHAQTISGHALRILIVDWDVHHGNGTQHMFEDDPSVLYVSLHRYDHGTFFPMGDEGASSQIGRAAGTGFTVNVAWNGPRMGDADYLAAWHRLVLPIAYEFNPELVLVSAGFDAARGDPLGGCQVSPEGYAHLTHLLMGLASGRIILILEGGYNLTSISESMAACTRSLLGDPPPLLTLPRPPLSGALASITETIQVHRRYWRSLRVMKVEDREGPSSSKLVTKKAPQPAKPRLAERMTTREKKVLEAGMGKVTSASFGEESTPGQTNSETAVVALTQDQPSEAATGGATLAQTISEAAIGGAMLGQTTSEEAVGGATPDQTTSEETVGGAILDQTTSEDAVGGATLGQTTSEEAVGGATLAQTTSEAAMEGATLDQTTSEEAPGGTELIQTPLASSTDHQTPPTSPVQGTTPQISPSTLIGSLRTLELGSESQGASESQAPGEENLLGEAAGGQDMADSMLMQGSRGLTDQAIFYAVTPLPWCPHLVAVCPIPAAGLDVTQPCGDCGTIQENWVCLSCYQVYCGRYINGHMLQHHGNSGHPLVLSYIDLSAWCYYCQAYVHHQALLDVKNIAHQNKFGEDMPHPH

mutant HSPB1 DRG neurons = test: Mitochondrial axonal transport in mutant HSPB1 DRG neurons; type: cell-based, mouse; details: DRG neurons from transgenic mutant HSPB1 mice, 100 nM overnight
Aqueous solubility = details: PBS; for solubility: pH 7.4, aqueous buffer
Caco-2 permeability = type: in vitro ADME; details: human, Caco-2, pH 7.4
[1] = Liver microsomes stability, human; type: in vitro ADME
[2] = Liver microsomes stability, mouse; type: in vitro ADME
[3] = Hepatocyte stability, human; type: in vitro ADME; details: hepatocytes
[4] = Hepatocyte stability, mouse; type: in vitro ADME; details: hepatocytes
Plasma stability, human = type: in vitro ADME; details: 120 min
Plasma stability, mouse = type: in vitro ADME; details: 120 min
CYP 2D6 = CYP 2D6 (Homo sapiens, UniProt P10635); test: CYP inhibition 2D6; type: in vitro ADME
CYP 3A4-M = CYP 3A4-M (Homo sapiens, UniProt P08684); test: CYP inhibition 3A4-M; type: in vitro ADME
CYP 3A4-T = CYP 3A4-T (Homo sapiens, UniProt P08684); test: CYP inhibition 3A4-T; type: in vitro ADME
[5] = Intravenous and oral plasma pharmacokinetics in male CD1 mice; type: in vivo; details: CD1, mouse
CYP 1A2 = molecular target: T2, CYP 1A2 (Homo sapiens, UniProt P05177); test: CYP inhibition 1A2
T2 sequence (P05177 1-516): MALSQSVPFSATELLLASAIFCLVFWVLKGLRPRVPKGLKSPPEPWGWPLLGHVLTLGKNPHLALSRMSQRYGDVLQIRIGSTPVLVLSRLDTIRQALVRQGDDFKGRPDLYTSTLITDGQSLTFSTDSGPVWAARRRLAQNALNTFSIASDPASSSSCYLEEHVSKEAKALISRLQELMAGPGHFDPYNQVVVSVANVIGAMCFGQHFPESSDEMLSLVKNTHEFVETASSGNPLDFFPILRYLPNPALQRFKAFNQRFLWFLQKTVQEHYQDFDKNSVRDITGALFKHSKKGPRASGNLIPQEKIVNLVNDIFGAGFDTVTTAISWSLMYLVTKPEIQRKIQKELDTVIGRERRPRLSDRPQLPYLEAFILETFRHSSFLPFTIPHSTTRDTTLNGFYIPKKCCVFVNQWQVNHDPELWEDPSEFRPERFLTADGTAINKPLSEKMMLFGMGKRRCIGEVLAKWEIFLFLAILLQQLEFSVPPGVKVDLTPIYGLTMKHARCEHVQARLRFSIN

CYP 2C9 = CYP 2C9 (Homo sapiens, UniProt P11712); test: CYP inhibition 2C9
CYP 2C19 = CYP 2C19 (Homo sapiens, UniProt P33261); test: CYP inhibition 2C19
HDAC4 = HDAC4 (Homo sapiens, UniProt P56524); test: HDAC4 enzymatic inhibition assay
HDAC5 = HDAC5 (Homo sapiens, UniProt Q9UQL6); test: HDAC5 enzymatic inhibition assay
HDAC8 = molecular target: T3, HDAC8 (Homo sapiens, UniProt Q9BY41); test: HDAC8 enzymatic inhibition assay
T3 sequence (Q9BY41 1-377): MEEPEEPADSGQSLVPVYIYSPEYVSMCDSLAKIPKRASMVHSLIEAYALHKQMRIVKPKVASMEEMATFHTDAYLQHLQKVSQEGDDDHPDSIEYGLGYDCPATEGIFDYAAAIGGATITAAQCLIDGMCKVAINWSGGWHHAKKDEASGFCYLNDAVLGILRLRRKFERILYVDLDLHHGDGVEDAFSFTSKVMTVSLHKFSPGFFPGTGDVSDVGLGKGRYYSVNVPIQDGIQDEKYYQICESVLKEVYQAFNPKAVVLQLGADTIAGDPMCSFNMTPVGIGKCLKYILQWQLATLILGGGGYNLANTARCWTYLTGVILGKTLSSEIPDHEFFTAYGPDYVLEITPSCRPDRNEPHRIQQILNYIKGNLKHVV

[6] = IC50 (nM) HDAC6, mean of two experiments ± standard deviation

Sequence of CYP 2C9 (P11712 whole entry): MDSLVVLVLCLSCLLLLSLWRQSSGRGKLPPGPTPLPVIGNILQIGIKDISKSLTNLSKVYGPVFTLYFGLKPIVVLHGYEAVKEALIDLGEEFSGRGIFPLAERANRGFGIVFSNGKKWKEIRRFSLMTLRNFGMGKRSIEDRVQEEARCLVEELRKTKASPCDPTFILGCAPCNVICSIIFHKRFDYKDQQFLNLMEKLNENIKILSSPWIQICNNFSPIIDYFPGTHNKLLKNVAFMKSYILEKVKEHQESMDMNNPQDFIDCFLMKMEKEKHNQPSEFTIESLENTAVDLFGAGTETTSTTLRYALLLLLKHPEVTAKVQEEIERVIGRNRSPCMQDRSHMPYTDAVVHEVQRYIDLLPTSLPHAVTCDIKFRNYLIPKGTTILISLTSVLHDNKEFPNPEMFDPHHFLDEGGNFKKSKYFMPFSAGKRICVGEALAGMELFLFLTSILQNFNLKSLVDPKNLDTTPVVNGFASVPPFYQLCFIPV
Sequence of CYP 2D6 (P10635 whole entry): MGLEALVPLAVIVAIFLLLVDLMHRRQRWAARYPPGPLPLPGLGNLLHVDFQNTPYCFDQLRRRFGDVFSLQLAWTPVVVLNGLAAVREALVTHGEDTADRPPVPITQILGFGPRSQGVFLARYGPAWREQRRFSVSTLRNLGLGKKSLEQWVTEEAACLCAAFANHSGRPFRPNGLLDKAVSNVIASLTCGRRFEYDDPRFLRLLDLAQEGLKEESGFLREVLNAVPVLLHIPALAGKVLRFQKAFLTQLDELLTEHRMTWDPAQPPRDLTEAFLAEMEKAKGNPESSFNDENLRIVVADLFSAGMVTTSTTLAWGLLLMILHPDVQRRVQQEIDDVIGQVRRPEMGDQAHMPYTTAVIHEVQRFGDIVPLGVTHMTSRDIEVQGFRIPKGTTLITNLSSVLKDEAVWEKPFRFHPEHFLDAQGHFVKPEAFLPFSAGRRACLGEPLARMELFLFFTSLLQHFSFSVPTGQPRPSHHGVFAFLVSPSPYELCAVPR
Sequence of CYP 2C19 (P33261 whole entry): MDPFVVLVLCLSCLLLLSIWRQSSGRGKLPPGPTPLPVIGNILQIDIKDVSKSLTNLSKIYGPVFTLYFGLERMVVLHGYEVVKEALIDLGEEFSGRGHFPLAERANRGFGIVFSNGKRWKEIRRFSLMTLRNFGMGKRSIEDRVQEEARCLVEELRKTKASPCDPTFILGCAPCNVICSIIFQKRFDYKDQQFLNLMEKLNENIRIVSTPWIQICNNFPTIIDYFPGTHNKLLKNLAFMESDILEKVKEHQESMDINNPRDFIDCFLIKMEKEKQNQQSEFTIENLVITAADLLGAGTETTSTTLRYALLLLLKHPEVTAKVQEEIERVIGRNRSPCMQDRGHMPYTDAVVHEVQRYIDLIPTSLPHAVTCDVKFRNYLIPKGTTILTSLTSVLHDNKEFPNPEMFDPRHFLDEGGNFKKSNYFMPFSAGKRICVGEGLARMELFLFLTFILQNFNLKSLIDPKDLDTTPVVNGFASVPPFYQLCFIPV
Sequence of HDAC5 (Q9UQL6 whole entry): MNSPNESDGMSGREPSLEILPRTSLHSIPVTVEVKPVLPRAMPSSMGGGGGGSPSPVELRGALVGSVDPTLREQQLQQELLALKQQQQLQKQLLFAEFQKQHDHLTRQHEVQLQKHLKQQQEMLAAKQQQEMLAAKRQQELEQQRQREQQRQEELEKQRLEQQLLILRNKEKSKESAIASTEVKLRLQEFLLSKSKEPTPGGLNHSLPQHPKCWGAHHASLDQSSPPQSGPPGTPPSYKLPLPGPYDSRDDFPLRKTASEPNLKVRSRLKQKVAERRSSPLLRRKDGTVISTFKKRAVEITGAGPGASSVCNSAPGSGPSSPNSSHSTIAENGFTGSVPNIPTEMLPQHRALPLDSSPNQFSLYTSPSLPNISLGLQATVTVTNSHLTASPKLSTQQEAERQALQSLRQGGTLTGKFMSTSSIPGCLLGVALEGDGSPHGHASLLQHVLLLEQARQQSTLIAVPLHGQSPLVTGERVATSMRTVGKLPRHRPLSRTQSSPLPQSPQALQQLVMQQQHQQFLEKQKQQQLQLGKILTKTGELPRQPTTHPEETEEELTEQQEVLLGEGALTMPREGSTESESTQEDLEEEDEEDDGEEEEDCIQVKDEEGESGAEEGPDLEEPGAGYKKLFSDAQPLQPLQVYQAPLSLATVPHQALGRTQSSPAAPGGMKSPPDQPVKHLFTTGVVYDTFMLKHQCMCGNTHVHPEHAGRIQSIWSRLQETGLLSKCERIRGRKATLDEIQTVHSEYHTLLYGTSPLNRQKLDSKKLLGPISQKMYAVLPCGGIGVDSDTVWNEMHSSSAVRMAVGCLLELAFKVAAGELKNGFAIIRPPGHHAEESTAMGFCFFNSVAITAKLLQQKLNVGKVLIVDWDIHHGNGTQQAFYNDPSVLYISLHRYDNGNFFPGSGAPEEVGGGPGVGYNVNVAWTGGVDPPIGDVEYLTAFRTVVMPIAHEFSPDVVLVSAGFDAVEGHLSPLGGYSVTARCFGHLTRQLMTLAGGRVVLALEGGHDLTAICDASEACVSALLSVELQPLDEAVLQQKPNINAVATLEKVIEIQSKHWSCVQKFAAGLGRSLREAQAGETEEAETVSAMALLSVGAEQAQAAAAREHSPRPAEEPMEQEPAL
Sequence of CYP 3A4-M (P08684 whole entry): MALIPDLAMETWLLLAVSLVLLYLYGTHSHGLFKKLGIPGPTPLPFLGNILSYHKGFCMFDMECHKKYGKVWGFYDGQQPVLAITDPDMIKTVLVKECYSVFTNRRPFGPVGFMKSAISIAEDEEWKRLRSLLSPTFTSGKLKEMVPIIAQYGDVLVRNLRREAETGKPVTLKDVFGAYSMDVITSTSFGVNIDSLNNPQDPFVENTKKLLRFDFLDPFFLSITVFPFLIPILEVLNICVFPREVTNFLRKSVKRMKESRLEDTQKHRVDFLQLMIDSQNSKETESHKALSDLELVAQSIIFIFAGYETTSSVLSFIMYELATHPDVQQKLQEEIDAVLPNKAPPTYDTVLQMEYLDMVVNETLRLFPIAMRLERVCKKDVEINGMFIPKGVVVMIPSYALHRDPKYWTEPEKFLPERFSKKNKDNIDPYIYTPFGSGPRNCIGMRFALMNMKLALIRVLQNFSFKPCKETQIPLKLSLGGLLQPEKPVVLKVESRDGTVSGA
Sequence of CYP 3A4-T (P08684 whole entry): as above
Sequence of HDAC4 (P56524 whole entry): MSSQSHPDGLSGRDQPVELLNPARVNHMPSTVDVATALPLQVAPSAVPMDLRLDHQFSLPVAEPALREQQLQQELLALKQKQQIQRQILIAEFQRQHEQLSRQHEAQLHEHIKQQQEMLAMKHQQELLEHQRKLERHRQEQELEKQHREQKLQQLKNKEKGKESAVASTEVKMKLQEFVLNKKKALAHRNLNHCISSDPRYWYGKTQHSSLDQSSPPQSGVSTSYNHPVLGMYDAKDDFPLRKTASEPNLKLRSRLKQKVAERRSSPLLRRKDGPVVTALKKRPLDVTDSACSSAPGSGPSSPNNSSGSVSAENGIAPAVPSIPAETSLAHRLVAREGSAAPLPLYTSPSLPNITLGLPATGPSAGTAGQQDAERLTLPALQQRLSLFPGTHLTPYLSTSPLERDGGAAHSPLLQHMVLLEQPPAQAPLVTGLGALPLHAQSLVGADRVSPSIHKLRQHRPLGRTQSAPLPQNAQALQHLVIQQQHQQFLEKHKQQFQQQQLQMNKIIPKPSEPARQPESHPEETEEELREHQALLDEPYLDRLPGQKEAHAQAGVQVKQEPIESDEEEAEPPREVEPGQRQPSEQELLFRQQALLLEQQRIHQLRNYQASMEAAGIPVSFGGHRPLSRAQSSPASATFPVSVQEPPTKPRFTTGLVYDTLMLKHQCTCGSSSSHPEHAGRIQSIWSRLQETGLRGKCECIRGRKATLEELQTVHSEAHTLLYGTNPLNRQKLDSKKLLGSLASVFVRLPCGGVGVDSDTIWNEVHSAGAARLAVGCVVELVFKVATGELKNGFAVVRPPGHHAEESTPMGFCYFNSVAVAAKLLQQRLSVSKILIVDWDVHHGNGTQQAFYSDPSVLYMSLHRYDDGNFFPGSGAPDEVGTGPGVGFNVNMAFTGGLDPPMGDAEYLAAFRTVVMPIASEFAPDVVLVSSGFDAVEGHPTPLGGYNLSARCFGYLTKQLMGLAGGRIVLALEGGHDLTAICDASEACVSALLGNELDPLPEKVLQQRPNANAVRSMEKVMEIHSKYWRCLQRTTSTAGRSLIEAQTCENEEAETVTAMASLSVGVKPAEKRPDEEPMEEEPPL

Structure (SMILES): Cc1nc2ccccc2n1Cc1ccc(C(=O)NO)cc1 [12a]
fold increase in HDAC6 inhibitory potency (HDAC6; compared to 8 (hydrogen to methyl)): 3 fold
Selectivity HDAC1/HDAC6 (HDAC6): 955
IC50 (HDAC6; read-out: IC50 (nM) HDAC6, mean of two experiments ± standard deviation): 9 nM and 9.2 nM
mitochondrial axonal transport (number of moving mitochondria per 100 μm of neurite) (mutant HSPB1 DRG neurons): able to restore the movement of mitochondria
aqueous solubility (Aqueous solubility; pH 7.4): 70 µM (≈ 19.7 µg/mL)

Structure (SMILES): CC(C)c1nc2ccccc2n1Cc1ccc(C(=O)NO)cc1 [12b, N-Hydroxy-4-[(2-isopropyl-1-benzimidazolyl)methyl]benzamide]
Selectivity HDAC1/HDAC6 (HDAC6): 589

Structure (SMILES): CC(=O)NCCCc1nc2ccccc2n1Cc1ccc(C(=O)NO)cc1 [12d, 4-[[2-(3-Acetamidopropyl)-1-benzimidazolyl]methyl]-N-hydroxybenzamide]
Selectivity HDAC1/HDAC6 (HDAC6): 312

Structure (SMILES): CN(C)CCc1nc2ccccc2n1Cc1ccc(C(=O)NO)cc1 [12e, 4-[[2-[2-(Dimethylamino)ethyl]-1-benzimidazolyl]methyl]-N-hydroxybenzamide]
Selectivity HDAC1/HDAC6 (HDAC6): 416

Structure (SMILES): CN1CCc2c(c3ccccc3n2Cc2ccc(C(=O)NO)cc2)C1 [tubastatin A, reference compound]
mitochondrial axonal transport (number of moving mitochondria per 100 μm of neurite) (mutant HSPB1 DRG neurons): able to restore the movement of mitochondria
Papp A→B (Caco-2 permeability): 2 ×10⁻⁶ cm/s
Papp B→A (Caco-2 permeability): 19.7 ×10⁻⁶ cm/s
half-life [1]: 25.3 h
half-life [2]: 5.05 h
half-life [3]: 1.47 h
half-life [4]: 0.5 h
plasma stability remaining percentage (Plasma stability, human): 96.4%
plasma stability remaining percentage (Plasma stability, mouse): 83.0%
IC50 (CYP 2D6): 16000 nM
clearance ([5]; iv, 3 mg/kg): 222 mL/min/kg
Tmax ([5]; po, 30 mg/kg): 0.25 h
IC50 (CYP 1A2): > 50000 nM
IC50 (CYP 2C9): > 50000 nM
IC50 (CYP 2C19): > 50000 nM
solubility (Aqueous solubility): 301 µM (≈ 101 µg/mL)

Now from value to molecule, other results behind:

IC50 (HDAC6; [6]): 3 nM
Structure (SMILES): O=C(NO)c1ccc(CN2CCNc3ccccc32)cc1 [17a, 4-[[1,2,3,4-Tetrahydroquinoxalin-1-yl]methyl]-N-hydroxybenzamide]

IC50 (HDAC6; [6]): 39.3 ± 0.3 nM
Structure (SMILES): O=C(NO)c1ccc(CN2CCN(CC3CC3)c3ccccc32)cc1 [17b, 4-[[4-(Cyclopropylmethyl)-1,2,3,4-tetrahydroquinoxalin-1-yl]-methyl]-N-hydroxybenzamide]

IC50 (HDAC6; [6]): 6 nM
Structure (SMILES): O=C(NO)c1ccc(CN2CCSc3ccccc32)cc1 [17c, 4-[[2,3-Dihydro-4H-benzo[b][1,4]thiazin-4-yl]methyl]-N-hydroxybenzamide]

IC50 (HDAC6; [6]): 34 nM
Structure (SMILES): CC(C)(C)OC(=O)N1CC(=O)N(Cc2ccc(C(=O)NO)cc2)c2ccccc21 [17e, tert-Butyl 4-[4-(Hydroxycarbamoyl)benzyl]-3-oxo-3,4-dihydroquinoxaline-1(2H)-carboxylate]

IC50 (HDAC6; [6]): 1 nM
Structure (SMILES): O=C(NO)c1ccc(Cn2c(=O)cnc3ccccc32)cc1 [17f, N-Hydroxy-4-[(2-oxoquinoxalin-1(2H)-yl)methyl]benzamide]

fold reduction of HDAC6 activity compared to 12a (HDAC6): > 400 fold
Structure (SMILES): Cc1nc2ccccc2n1Cc1nc(C(=O)NO)co1 [23a, N-Hydroxy-2-[(2-methyl-1-benzimidazolyl)methyl]oxazole-4-carboxamide]

IC50 (HDAC6; [6]): 8310 ± 905 nM
fold reduction of HDAC6 activity compared to 12a (HDAC6): > 900 fold
Structure (SMILES): Cc1nc2ccccc2n1Cc1nc(C(=O)NO)cs1 [23b, N-Hydroxy-2-[(2-methyl-1-benzimidazolyl)methyl]thiazole-4-carboxamide]

IC50 (HDAC6; [6]): 77 nM
Structure (SMILES): Cc1nc2ccccc2n1Cc1ccc(C(=O)NO)cn1 [23c, N-Hydroxy-6-[(2-methyl-1-benzimidazolyl)methyl]nicotinamide]

Papp A→B (Caco-2 permeability): 3.89 ×10⁻⁶ cm/s
Papp B→A (Caco-2 permeability): 13.2 ×10⁻⁶ cm/s
half-life [1]: 32.4 h
half-life [2]: 4.75 h
half-life [3]: 24.8 h
half-life [4]: 0.667 h
plasma stability remaining percentage (Plasma stability, human): 93.4%
plasma stability remaining percentage (Plasma stability, mouse): 87.9%
IC50 (CYP 2D6): > 50000 nM
IC50 (CYP 3A4-M): > 50000 nM
IC50 (CYP 3A4-T): 36000 nM
AUC(0-inf) ([5]; iv, 3 mg/kg): 1480 ng·h/mL
Vd ([5]; iv, 3 mg/kg): 0.382 L/kg
clearance ([5]; iv, 3 mg/kg): 34 mL/min/kg
half-life ([5]; iv, 3 mg/kg): 0.851 h
AUC(0-inf) ([5]; po, 30 mg/kg): 3100 ± 84 ng·h/mL
Cmax ([5]; po, 30 mg/kg): 4370 ± 470 ng/mL
Tmax ([5]; po, 30 mg/kg): 0.25 h
IC50 (CYP 1A2): > 50000 nM
IC50 (CYP 2C9): > 50000 nM
IC50 (CYP 2C19): > 50000 nM
solubility (Aqueous solubility): 302 µM (≈ 90.4 µg/mL)
IC50 (HDAC4): 470 nM
IC50 (HDAC5): 182 nM
IC50 (HDAC8): 176 nM
Structure (SMILES): Cc1nc2ccccc2n1Cc1ccc(C(=O)NO)cc1F [23d, 3-Fluoro-N-hydroxy-4-[(2-methyl-1-benzimidazolyl)methyl]-benzamide]
mitochondrial axonal transport (number of moving mitochondria per 100 μm of neurite) (mutant HSPB1 DRG neurons): able to restore the movement of mitochondria

IC50 (HDAC6; [6]): 16 nM
Selectivity HDAC1/HDAC6 (HDAC6): 1500
Structure (SMILES): O=C(NO)c1ccc(Cn2c(C(F)(F)F)nc3ccccc32)c(F)c1 [23e, 3-Fluoro-N-hydroxy-4-[(2-(trifluoromethyl)-1-benzimidazolyl)-methyl]benzamide]

IC50 (HDAC6; [6]): 6 nM
Structure (SMILES): Cc1nc2cc(F)ccc2n1Cc1ccc(C(=O)NO)cc1 [30b, 4-[(5-Fluoro-2-methyl-1-benzimidazolyl)methyl]-N-hydroxybenzamide]
